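All cell lines were grown in 96-well plates and treated with compound for 48 hours. TGI: concentration producing complete growth inhibition.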
Legend:
Experiment in all cases: NCI tumour cell line growth inhibition, 48 h
SNB-75 CNS = system: SNB-75 CNS
OVCAR-8 ovarian = system: OVCAR-8 ovarian
OVCAR-3 ovarian = system: OVCAR-3 ovarian
K-562 leukemia = system: K-562 leukemia
M14 melanoma = system: M14 melanoma
MDA-MB-231 breast = system: MDA-MB-231 breast
SF-539 CNS = system: SF-539 CNS
UACC-62 melanoma = system: UACC-62 melanoma
RXF 393 renal = system: RXF 393 renal
HS 578T breast = system: HS 578T breast
T-47D breast = system: T-47D breast
A498 renal = system: A498 renal
SK-OV-3 ovarian = system: SK-OV-3 ovarian
UACC-257 melanoma = system: UACC-257 melanoma
ACHN renal = system: ACHN renal
HOP-62 NSCLC = system: HOP-62 NSCLC
EKVX NSCLC = system: EKVX NSCLC
SNB-19 CNS = system: SNB-19 CNS
PC-3 prostate = system: PC-3 prostate
NCI-H226 lung = system: NCI-H226 lung
U251 CNS = system: U251 CNS
CAKI-1 renal = system: CAKI-1 renal
NCI-H460 lung = system: NCI-H460 lung
HCC-2998 colon = system: HCC-2998 colon
SK-MEL-28 melanoma = system: SK-MEL-28 melanoma
HOP-92 NSCLC = system: HOP-92 NSCLC
MDA-N = system: MDA-N
SK-MEL-5 melanoma = system: SK-MEL-5 melanoma
OVCAR-5 ovarian = system: OVCAR-5 ovarian
RPMI-8226 leukemia = system: RPMI-8226 leukemia
KM12 colon = system: KM12 colon
NCI-H23 lung = system: NCI-H23 lung
SK-MEL-2 melanoma = system: SK-MEL-2 melanoma
MCF7 breast = system: MCF7 breast
SW-620 colon = system: SW-620 colon
LOX IMVI melanoma = system: LOX IMVI melanoma
SN12C renal = system: SN12C renal
SF-295 CNS = system: SF-295 CNS
A549 NSCLC = system: A549 NSCLC
UO-31 renal = system: UO-31 renal
HCT-116 colon = system: HCT-116 colon
CCRF-CEM leukemia = system: CCRF-CEM leukemia
HCT-15 colon = system: HCT-15 colon
TK-10 renal = system: TK-10 renal
NCI-H522 lung = system: NCI-H522 lung
BT-549 breast = system: BT-549 breast
SF-268 CNS = system: SF-268 CNS
MDA-MB-435 = system: MDA-MB-435
786-0 renal = system: 786-0 renal
COLO 205 colon = system: COLO 205 colon
OVCAR-4 ovarian = system: OVCAR-4 ovarian
HL-60(TB) leukemia = system: HL-60(TB) leukemia
HT29 colon = system: HT29 colon
MALME-3M melanoma = system: MALME-3M melanoma
IGROV1 ovarian = system: IGROV1 ovarian
DU-145 prostate = system: DU-145 prostate
MOLT-4 leukemia = system: MOLT-4 leukemia
NCI/ADR-RES ovarian = system: NCI/ADR-RES ovarian

**Q.** `CN(C)CC1CCC/C(=C\c2ccc(N(C)C)cc2)C1=O` (stereo not drawn) was tested. Which TGI (SNB-75 CNS) did it give?
**A.** 30.7 µM

**Q.** What about the TGI (OVCAR-8 ovarian) of the same compound?
**A.** 18 µM

**Q.** And the TGI (OVCAR-3 ovarian)?
**A.** 9.36 µM

**Q.** And the TGI (K-562 leukemia)?
**A.** > 100 µM

**Q.** And the TGI (M14 melanoma)?
**A.** 9.46 µM

**Q.** What about the TGI (MDA-MB-231 breast) of the same compound?
**A.** 15.7 µM

**Q.** What about the TGI (SF-539 CNS) of the same compound?
**A.** 28.8 µM

**Q.** What about the TGI (UACC-62 melanoma) of the same compound?
**A.** 29.2 µM

**Q.** What about the TGI (RXF 393 renal) of the same compound?
**A.** 21.2 µM

**Q.** And the TGI (HS 578T breast)?
**A.** 26 µM

**Q.** What about the TGI (T-47D breast) of the same compound?
**A.** 4.11 µM

**Q.** And the TGI (A498 renal)?
**A.** 30.9 µM

**Q.** And the TGI (SK-OV-3 ovarian)?
**A.** 31.7 µM

**Q.** And the TGI (UACC-257 melanoma)?
**A.** 26.3 µM

**Q.** What about the TGI (ACHN renal) of the same compound?
**A.** 34 µM

**Q.** What about the TGI (HOP-62 NSCLC) of the same compound?
**A.** 33 µM

**Q.** What about the TGI (EKVX NSCLC) of the same compound?
**A.** 30.4 µM

**Q.** And the TGI (SNB-19 CNS)?
**A.** 31.9 µM

**Q.** What about the TGI (PC-3 prostate) of the same compound?
**A.** 32.2 µM

**Q.** What about the TGI (NCI-H226 lung) of the same compound?
**A.** 64 µM

**Q.** What about the TGI (U251 CNS) of the same compound?
**A.** 30.7 µM

**Q.** And the TGI (CAKI-1 renal)?
**A.** 3.3 µM

**Q.** What about the TGI (NCI-H460 lung) of the same compound?
**A.** 28.5 µM

**Q.** What about the TGI (HCC-2998 colon) of the same compound?
**A.** 29.4 µM

**Q.** What about the TGI (SK-MEL-28 melanoma) of the same compound?
**A.** 19.1 µM

**Q.** What about the TGI (HOP-92 NSCLC) of the same compound?
**A.** 9.79 µM

**Q.** And the TGI (MDA-N)?
**A.** 19.6 µM

**Q.** And the TGI (SK-MEL-5 melanoma)?
**A.** 31.4 µM

**Q.** And the TGI (OVCAR-5 ovarian)?
**A.** 26.9 µM

**Q.** What about the TGI (RPMI-8226 leukemia) of the same compound?
**A.** > 100 µM

**Q.** What about the TGI (KM12 colon) of the same compound?
**A.** 2.93 µM

**Q.** And the TGI (NCI-H23 lung)?
**A.** 28.7 µM

**Q.** What about the TGI (SK-MEL-2 melanoma) of the same compound?
**A.** 22.3 µM

**Q.** And the TGI (MCF7 breast)?
**A.** 2.82 µM

**Q.** What about the TGI (SW-620 colon) of the same compound?
**A.** 3.29 µM

**Q.** What about the TGI (LOX IMVI melanoma) of the same compound?
**A.** 3.16 µM

**Q.** And the TGI (SN12C renal)?
**A.** 29.6 µM

**Q.** And the TGI (SF-295 CNS)?
**A.** 32.2 µM

**Q.** And the TGI (A549 NSCLC)?
**A.** 32.1 µM

**Q.** And the TGI (UO-31 renal)?
**A.** 22.2 µM

**Q.** What about the TGI (HCT-116 colon) of the same compound?
**A.** 10.1 µM

**Q.** And the TGI (CCRF-CEM leukemia)?
**A.** > 100 µM

**Q.** And the TGI (HCT-15 colon)?
**A.** 16.1 µM

**Q.** And the TGI (TK-10 renal)?
**A.** 4.96 µM

**Q.** And the TGI (NCI-H522 lung)?
**A.** 3.21 µM

**Q.** What about the TGI (BT-549 breast) of the same compound?
**A.** 29.7 µM

**Q.** And the TGI (SF-268 CNS)?
**A.** 3.57 µM

**Q.** What about the TGI (MDA-MB-435) of the same compound?
**A.** 17.4 µM

**Q.** And the TGI (786-0 renal)?
**A.** 10.8 µM

**Q.** And the TGI (COLO 205 colon)?
**A.** 6.65 µM

**Q.** What about the TGI (OVCAR-4 ovarian) of the same compound?
**A.** 4.4 µM

**Q.** And the TGI (HL-60(TB) leukemia)?
**A.** > 100 µM

**Q.** And the TGI (HT29 colon)?
**A.** 3.6 µM

**Q.** And the TGI (MALME-3M melanoma)?
**A.** 24.5 µM

**Q.** And the TGI (IGROV1 ovarian)?
**A.** 11.8 µM

**Q.** What about the TGI (DU-145 prostate) of the same compound?
**A.** 34 µM

**Q.** And the TGI (MOLT-4 leukemia)?
**A.** > 100 µM

**Q.** What about the TGI (NCI/ADR-RES ovarian) of the same compound?
**A.** 65.3 µM
